Laboratory results from article PMC2759945, “Cellular transport of anti-inflammatory pro-drugs originated from a herbal formulation of Zingiber cassumunar and Nigella sativa” (Chinese Medicine, 2009).
Values after ≈ are worked out from the molar mass of the structure shown.

Tests used:
[1] = Transport across Caco-2 cell monolayers, apical to basolateral; format: in vitro ADME, human; details: human, Caco-2, pH 7.4; for Papp at 100 min, 53 μM: read-out: apparent permeability coefficient Papp at 53 μM; for Papp at 100 min, 106 μM: read-out: apparent permeability coefficient Papp at 106 μM
Experimental: (§1) Caco-2 cells were maintained in a DMEM at pH7.4, supplemented with 10% fetal bovine serum, 2 mM L-glutamine, 1% non-essential amino acid solution and 0.1% penicillin-streptomycin solution in a humidified atmosphere (5% CO2, 95% air, at 37°C). Cells were grown until 60-70% confluence. Cells from passages 20-40 were used for all experiments. Cells were seeded on tissue culture polycarbonate membrane filters (pore size: 3.0 μm) in 6-well Transwell plates (Corning, USA) at a seeding density of 2 × 10^4cells/cm^2. Culture medium was added to both the donor and the acceptor compartments. Medium was changed every two days. Cells were left to differentiate for 15-21 days after seeding with monitoring of trans-epithelial electrical resistance (TEER) values with a Millicell electrical resistance system (Millipore, USA) and the value should be higher than 600Ω.cm^2.
(§2) Transport experiment across the Caco-2 cell monolayers at pH7.4 was performed. Caco-2 cell monolayers in Transwell (6-well) plates were used for transport studies when they were differentiated and the monolayer was intact, as checked by measuring TEER. Prior to the experiment, the cells were washed twice with phosphate buffered saline (PBS) and pre-equilibrated for one hour with HBSS buffered with 30 mM n-(2-hydroxyethyl) piperazine-n-(2-ethanosulfonic acid) (HEPES) at pH7.4. After medium was removed, the cells were treated with sample solutions (concentrations of 53 μM and 106 μM in HBSS at pH7.4) in an apical compartment. Samples (1 mL) were taken under sink conditions at 0, 5, 20, 40, 60, 80 and 100 minutes from the basolateral side and replaced with an equal volume of fresh HBSS solution. The amount of the compounds from the basolateral side was determined on a UV-spectrophotometer (Thermo Scientific, USA) at 228 nm. Results were expressed as cumulative transport as a function of time. Apparent permeability coefficient was calculated according to the following equation: […]
(§3) where Papp is the apparent permeability coefficient (cm/s), dQ/dt (μg/s) is the rate of appearance of sample on the basolateral side, A is the surface area of the monolayer (cm^2) and C0 (μg/mL) is the initial drug concentration in the donor compartment. All rate constants were obtained from the permeation profiles of each compound. Statistical significance was evaluated with one-way analysis of variance (one-way ANOVA). A value of P < 0.05 was considered statistically significant.

[2] = test system: Caco-2 cell monolayers; test: as above; format: in vitro ADME, human; details: for Papp at 53 μM / Papp at 106 μM: apical to basolateral, pH7.4, mean (SD), n = 3
Experimental: as §1, §2, §3

[3] = test system: porcine liver esterase; test: Enzyme hydrolysis by porcine liver esterase, monitored by HPLC; format: in vitro ADME; details: 10 μM, 37°C
Experimental: Compound 1 (2 mL, 10 μM solution) was pre-incubated at 37°C and 200 μL of esterase enzyme (porcrine liver, 750 units) was added. Samples (200 μL each) were taken at 5, 10, 20, 30 and 60 minutes and added to 200 μL of methanol. Mixtures were vortexed to stop enzymatic activity. Samples were then centrifuged for five minutes at 14,000 × g (Lab Essentials, USA). Supernatant was injected to the HPLC system for the determination of ester pro-drugs and compound D. This procedure was repeated for compounds 2 and 3.

[4] = test system: Mycobacterium tuberculosis H37Ra; design: method as in PMID 17691048; details: cited from earlier work
[5] = Chemical hydrolysis in transport medium (HBSS); format: physicochemical; details: 53 μM and 106 μM in transport medium (HBSS pH7.4), stored at 4°C for 96 hours
Experimental: Solution of compound 1, 2 and 3 at 53 μM and 106 μM were prepared in Hank's balanced salt solution (HBSS) at pH7.4. All solutions were kept at 4°C for 96 hours and each solution was then analyzed by HPLC at 12, 24, 48, 72 and 96 hours to determine the hydrolysis product.

[6] = design: method as in PMID 17691048; details: human vero cell line, cited from earlier work
[7] = test system: herpes simplex virus (HSV-1); design: method as in PMID 17691048; details: vero cell line; cited from earlier work
[8] = test system: carrageenan-induced rat paw edema; design: method as in doi:10.1055/s-2006-961309; details: compound D from a hexane extract of Z. cassumunar; cited from earlier work
[9] = test system: uterus of non-pregnant rat; design: method as in PMID 3671553; details: cited from earlier work
[10] = apical to basolateral direction

Row | SMILES | Papp at 100 min, 53 μM [1] [×10⁻⁶ cm/s] | Papp at 100 min, 106 μM [1] [×10⁻⁶ cm/s] | hydrolysis during the transport across Caco-2 cell monolayers [2] | cumulative transport at 53 μM ([2]; 53 μM, apical to basolateral direction) | Papp at 53 μM ([2]; 53 μM) | cumulative transport at 106 μM [2, 10] | Papp at 106 μM [2] | time in which the ester hydrolysis was completed [3] [min] | Minimal inhibitory concentration [4] [µg/mL] | time after which hydrolysis product compound D was detected by HPLC [5] [h] | cytotoxicity ([6]; at anti-HSV-1 IC50) | anti-HSV-1 IC50 [7] [µg/mL] | cytotoxicity IC50 [6] [µg/mL] | effect on edema formation [8] | uterine relaxant effect [9]
1 | CCCCC/C=C\C/C=C\CCCCCCCC(=O)OCC/C=C/c1ccc(OC)c(OC)c1 [Compound 1, (E)-4-(3,4-dimethoxyphenyl)but-3-en-1-yl linoleate] | 13.9 | 14.3 | did not occur | highest cumulative transport | 13.94 (0.60) 10^-6cm/s | higher cumulative transport over other two fatty acid ester | 14.33 (0.17) 10^-6cm/s | ≤ 10 | 200 (≈ 425 µM) | 24 |  |  |  |  | 
2 | CCCCCCCC/C=C\CCCCCCCC(=O)OCC/C=C/c1ccc(OC)c(OC)c1 [Compound 2, (E)-4-(3,4-dimethoxyphenyl)but-3-en-1-yl oleate] | 9.45 | 10.1 | did not occur |  | 9.45 (0.29) 10^-6cm/s |  | 10.08 (0.32) 10^-6cm/s | ≤ 10 | 100 (≈ 212 µM) | 24 | without cytotoxicity | 42.6 |  |  | 
3 | CCCCCCCCCCCCCCCC(=O)OCC/C=C/c1ccc(OC)c(OC)c1 [Compound 3, (E)-4-(3,4-dimethoxyphenyl)but-3-en-1-yl palmitate] | 7.48 | 8.6 | did not occur |  | 7.48 (0.31)** 10^-6cm/s |  | 8.60 (0.55)** 10^-6cm/s | ≤ 10 | 200 (≈ 448 µM) | 24 |  |  | 38 |  | 
4 | COc1ccc(/C=C/CCO)cc1OC [Compound D, (E)-4-(3,4-dimethoxyphenyl)but-3-en-1-ol] | 8.53 | 16.4 |  |  | 8.53 (0.83)** 10^-6cm/s | cumulative transport close to compound 3 | 16.38 (0.61)** 10^-6cm/s |  |  |  |  |  |  | potent inhibitory effect on edema formation | dose dependent uterine relaxant effect
